Measurements as given in patent US20260231994A1, “TASTE-ENHANCING COMPOSITION, METHOD FOR PRODUCING SAME, FOOD PRODUCT, AND METHOD FOR ENHANCING TASTE OF FOOD PRODUCT” (HOUSE FOODS GROUP INC., priority 2023, published 2026).

Experiments:
Format in all cases: in vivo
[1] = Experiment 1 sensory evaluation of “boosting of flavor” (cyclic dipeptides, coriander); settings: for “boosting of flavor” Average: cyclic dipeptide aqueous solution (concentration as in heat-treated coriander) at final 0.2% (w/w) in reduced-sodium curry roux dispersion, score 1-5; for “boosting of flavor” Evaluation: cyclic dipeptide aqueous solution at final 0.2% (w/w) in reduced-sodium curry roux dispersion, class of average score
Protocol: Flour roux was prepared by putting 20 g of flour and 30 g of beef tallow in a pan, then heating with stirring at 120° C. To this flour roux were added 10 g of sodium chloride, 10 g of sugar, 10 g of cornstarch, 5 g of curry powder and 15 g of other seasoning ingredients (vegetable and fruit extracts, yeast extract and seafood extract), and after heat-treatment to 105° C., the mixture was cooled and solidified, to form a block of common curry roux.
The sodium chloride equivalent per 100 g of this curry roux was 10.6 g.
Reduced-sodium curry roux was prepared according to the same procedure, except that the amount of sodium chloride was reduced to 7 g from the amount in the common curry roux in (1).
The sodium chloride equivalent per 100 g of this reduced-sodium curry roux was 7.7 g.
Out of the cyclic dipeptides included in the heat-treated coriander prepared in 1.1. described above, which were confirmed to be increased in 1.2. above, an aqueous solution of the respective 14 cyclic dipeptides shown in the table described below was prepared. The concentration of the cyclic dipeptide in each aqueous solution was set to be equal to its concentration in the heat-treated coriander prepared in 1.1. described above, which was estimated from the ratio of the peak area of the cyclic dipeptide to the peak area of the internal standard (47 μg/g L-lysine-^13C6 monohydrochloride) confirmed in 1.2. described above.
Two dispersions of 44 g of the reduced-sodium curry roux in (2) dispersed in 300 g of hot water were prepared.
To one of them was added the heat-treated coriander or the powdered unheated coriander prepared in 1.1. described above, or the cyclic dipeptide aqueous solution (corresponding to the heat-treated coriander) prepared in (3) above, so that the final concentration was 0.2% (w/w), and a sensory evaluation was carried out.
Forty-four grams of the common curry roux in (1) was dispersed in 300 g of hot water.
The dispersion of reduced-sodium curry roux dispersed in hot water and the dispersion of common curry roux dispersed in hot water were used as comparative controls, and the strength of the flavor was evaluated by four evaluators on the basis of the following evaluation criteria from the viewpoint of “boosting of flavor.” The term “boosting of flavor” in this experiment is an effect concerted by the combination of sodium chloride and other foodstuffs in curry roux, and is an aspect of “saltiness.” Thus, the “flavor” in this experiment can be also expressed as “saltiness.”
The average of the evaluated scores was defined as “F” when it was 1.0 or lower, “C” when it was 1.1 or higher and 1.9 or lower, “B” when it was 2.0 or higher and 2.5 or lower, “A” when it was 2.6 or higher and 2.9 or lower, and “AA” when it was 3.0 or higher.

[2] = Experiment 6 sensory evaluation of cyclic dipeptides, “middle fullness (enhanced thickness)”
How it was run: (§1)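 Reduced-sodium curry roux (44 g in 300 g hot water) was spiked with cyclic dipeptide solutions matching heat-treated coriander or paprika levels, at 0.5% or 1.0% (w/w) final. Three evaluators scored each sample against unspiked reduced-sodium and common roux. Mean scores were graded F to AA.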

[3] = Experiment 6 sensory evaluation of cyclic dipeptides, “boosting of last flavor (aftertaste)”
How it was run: as §1

[4] = Experiment 6 sensory evaluation of cyclic dipeptides, “top sharp saltiness”
How it was run: as §1

[5] = Additive amount coriander 0.5%, reduced-sodium curry roux
[6] = heat-treated coriander equivalent aqueous solution of cyclic dipeptide, final 1.0% (w/w) in reduced-sodium curry roux dispersion
[7] = heat-treated coriander equivalent aqueous solution of cyclic dipeptide, final 1.0% (w/w) in reduced-sodium curry roux dispersion, 3 evaluators
[8] = Additive amount coriander 0.5% (heat-treated coriander equivalent aqueous solution, final 0.5% (w/w)), reduced-sodium curry roux
[9] = Additive amount paprika 0.5%, reduced-sodium curry roux
[10] = heat-treated paprika equivalent aqueous solution of cyclic dipeptide, final 1.0% (w/w) in reduced-sodium curry roux dispersion
[11] = heat-treated paprika equivalent aqueous solution of cyclic dipeptide, final 1.0% (w/w) in reduced-sodium curry roux dispersion, 3 evaluators
[12] = Additive amount paprika 0.5% (heat-treated paprika equivalent aqueous solution, final 0.5% (w/w)), reduced-sodium curry roux

| Substance | Middle fullness Average [2, 5] [points] | Middle fullness Evaluation [2, 5] | Middle fullness Evaluation [2, 6] | Middle fullness Average [2, 7] [points] | Bosting of last flavor Average [3, 5] [points] | Bosting of last flavor Evaluation [3, 5] | Bosting of last flavor Evaluation [3, 6] | Bosting of last flavor Average [3, 7] [points] | Middle fullness Average [2, 9] [points] | Middle fullness Evaluation [2, 9] | Middle fullness Evaluation [2, 10] | Middle fullness Average [2, 11] [points] | Bosting of last flavor Average [3, 9] [points] | Bosting of last flavor Evaluation [3, 9] | Bosting of last flavor Evaluation [3, 10] | Bosting of last flavor Average [3, 11] [points] | Top sharp saltiness Average [4, 12] [points] | Top sharp saltiness Evaluation [4, 9] | Top sharp saltiness Evaluation [4, 10] | Top sharp saltiness Average [4, 11] [points] | further results |
| --- | --- | --- | --- | --- | --- | --- | --- | --- | --- | --- | --- | --- | --- | --- | --- | --- | --- | --- | --- | --- | --- |
| cyclic (Ala-Leu/Ile) [Coriander ID 32] | 2.2 | B (“B” when it was 2.0 or higher and 2.5 or lower) | A (“A” when it was 2.6 or higher and 2.9 or lower) | 2.8 | 2.1 | B (“B” when it was 2.0 or higher and 2.5 or lower) | AA (“AA” when it was 3.0 or higher) | 3.2 | – | – | – | – | – | – | – | – | – | – | – | – | “boosting of flavor” Average [1]: 2.8 points; “boosting of flavor” Evaluation [1]: A (“A” when it was 2.6 or higher and 2.9 or lower); Top sharp saltiness Average [4, 8]: 2.1 points; Top sharp saltiness Evaluation [4, 5]: B (“B” when it was 2.0 or higher and 2.5 or lower); Top sharp saltiness Evaluation [4, 6]: B (“B” when it was 2.0 or higher and 2.5 or lower); Top sharp saltiness Average [4, 7]: 2.5 points |
| cyclic (Ala-Pro) [Coriander ID 23] | – | – | – | – | – | – | – | – | 2.2 | B (“B” when it was 2.0 or higher and 2.5 or lower) | AA (“AA” when it was 3.0 or higher) | 3.0 | 2.2 | B (“B” when it was 2.0 or higher and 2.5 or lower) | AA (“AA” when it was 3.0 or higher) | 3.0 | 2.3 | B (“B” when it was 2.0 or higher and 2.5 or lower) | A (“A” when it was 2.6 or higher and 2.9 or lower) | 2.7 | “boosting of flavor” Average [1]: 2.0 points; “boosting of flavor” Evaluation [1]: B (“B” when it was 2.0 or higher and 2.5 or lower) |
| cyclic (Ala-Val) [Coriander ID 27] | 2.2 | B (“B” when it was 2.0 or higher and 2.5 or lower) | AA (“AA” when it was 3.0 or higher) | 3.0 | 2.3 | B (“B” when it was 2.0 or higher and 2.5 or lower) | A (“A” when it was 2.6 or higher and 2.9 or lower) | 2.7 | – | – | – | – | – | – | – | – | – | – | – | – | “boosting of flavor” in words ([1]; added to reduced-sodium curry roux dispersion, compared with no addition, unheated coriander or common curry roux): comparable flavor to that of the dispersion of common curry roux; “boosting of flavor” Average [1]: 3.0 points; “boosting of flavor” Evaluation [1]: AA (“AA” when it was 3.0 or higher); Top sharp saltiness Average [4, 8]: 2.3 points; Top sharp saltiness Evaluation [4, 5]: B (“B” when it was 2.0 or higher and 2.5 or lower); Top sharp saltiness Evaluation [4, 6]: B (“B” when it was 2.0 or higher and 2.5 or lower); Top sharp saltiness Average [4, 7]: 2.5 points |
| cyclic (Tyr-Asp) | – | – | – | – | – | – | – | – | 2.1 | B (“B” when it was 2.0 or higher and 2.5 or lower) | A (“A” when it was 2.6 or higher and 2.9 or lower) | 2.8 | 2.1 | B (“B” when it was 2.0 or higher and 2.5 or lower) | A (“A” when it was 2.6 or higher and 2.9 or lower) | 2.8 | 2.1 | B (“B” when it was 2.0 or higher and 2.5 or lower) | B (“B” when it was 2.0 or higher and 2.5 or lower) | 2.5 | – |
| cyclic (Tyr-His) [Coriander ID 50] | 2.5 | B (“B” when it was 2.0 or higher and 2.5 or lower) | AA (“AA” when it was 3.0 or higher) | 3.3 | 2.8 | A (“A” when it was 2.6 or higher and 2.9 or lower) | AA (“AA” when it was 3.0 or higher) | 3.0 | – | – | – | – | – | – | – | – | – | – | – | – | Top sharp saltiness Average [4, 8]: 2.3 points; Top sharp saltiness Evaluation [4, 5]: B (“B” when it was 2.0 or higher and 2.5 or lower); Top sharp saltiness Evaluation [4, 6]: AA (“AA” when it was 3.0 or higher); Top sharp saltiness Average [4, 7]: 3.3 points |
| cyclic (Val-Arg) [Coriander ID 20] | 3.3 | AA (“AA” when it was 3.0 or higher) | B (“B” when it was 2.0 or higher and 2.5 or lower) | 2.0 | 3.7 | AA (“AA” when it was 3.0 or higher) | B (“B” when it was 2.0 or higher and 2.5 or lower) | 2.2 | – | – | – | – | – | – | – | – | – | – | – | – | Top sharp saltiness Average [4, 8]: 2.7 points; Top sharp saltiness Evaluation [4, 5]: A (“A” when it was 2.6 or higher and 2.9 or lower); Top sharp saltiness Evaluation [4, 6]: C (“C” when it was 1.1 or higher and 1.9 or lower); Top sharp saltiness Average [4, 7]: 1.7 points |
| cyclic (Val-Phe) [Coriander ID 38] | – | – | – | – | – | – | – | – | 3.2 | AA (“AA” when it was 3.0 or higher) | A (“A” when it was 2.6 or higher and 2.9 or lower) | 2.8 | 3.3 | AA (“AA” when it was 3.0 or higher) | AA (“AA” when it was 3.0 or higher) | 3.2 | 2.8 | A (“A” when it was 2.6 or higher and 2.9 or lower) | A (“A” when it was 2.6 or higher and 2.9 or lower) | 2.8 | – |
| cyclic (Val-Ser) [Coriander ID 59] | – | – | – | – | – | – | – | – | 2.7 | A (“A” when it was 2.6 or higher and 2.9 or lower) | B (“B” when it was 2.0 or higher and 2.5 or lower) | 2.2 | 2.7 | A (“A” when it was 2.6 or higher and 2.9 or lower) | A (“A” when it was 2.6 or higher and 2.9 or lower) | 2.8 | 2.5 | B (“B” when it was 2.0 or higher and 2.5 or lower) | C (“C” when it was 1.1 or higher and 1.9 or lower) | 1.8 | – |
| cyclic (Val-Tyr) [Coriander ID 35] | – | – | – | – | – | – | – | – | 2.2 | B (“B” when it was 2.0 or higher and 2.5 or lower) | B (“B” when it was 2.0 or higher and 2.5 or lower) | 2.2 | 1.8 | C (“C” when it was 1.1 or higher and 1.9 or lower) | B (“B” when it was 2.0 or higher and 2.5 or lower) | 2.3 | 1.8 | C (“C” when it was 1.1 or higher and 1.9 or lower) | B (“B” when it was 2.0 or higher and 2.5 or lower) | 2.3 | – |
